Patent US3988461A, “Pharmaceutical composition for the treatment of Parkinson's disease” (priority 1974, dated 1976)
Structures can show the parent of a compound that is named as a salt.

Key:
[1] = Toxicity Tests (oral, individual and joint toxicity); settings: mouse, in vivo, po; for mortality at 72 h: Perishment, %
Experimental: (§1) The toxicities of the individual components were determined separately on mice. The active agents were suspended in water containing Tween 80, and the suspension was administered orally to the animals in a dosage of 20 ml./kg. The animals were kept under observation for 72 hours. The poisoned animals perished within 48 hours.
(§2) The joint toxicity of the individual active agents was determined as follows:
(§3) a. The animals were treated with 1 g/kg. of L-Dopa. 1 hour after the administration of L-Dopa, the animals were treated with varying amounts of Cyproheptadine hydrochloride.
(§4) b. The animals were treated with 2 g./kg. of L-Dopa, and varying amounts of Cyproheptadine hydrochloride were administered subsequently.
(§5) c. The animals were treated with 3 g./kg. of L-Dopa, and subsequently Cyproheptadine hydrochloride was administered in varying amounts.
(§6) In order to evaluate the changes in toxicity, the expected toxicities of the compositions listed below were determined by constructing an isobole, and the calculated data were compared to the observed ones.

[2] = test system: mice; test: as above
Experimental: as §1, §2, §3, §4, §5, §6

[3] = test system: motility; test: Examination of Locomotive Stimulating Effect on Motility Test
Experimental: b. Examination of Locomotive Stimulating Effect on Motility Test
The tests were performed on white mice. An intraperitoneal dosage of 500 mg./kg. of L-Dopa was administered 30 minutes after the pre-treatment with Cyproheptadine hydrochloride.

[4] = test system: Perphenazine-induced catalepsy; test: Antagonism of Perphenazine-induced Catalepsy; assay type: in vivo, white rats
Experimental: The synergistic increase in the antiparkinson effect was investigated by studying the inhibition of Oxotremorine-induced tremor and the antagonism of Perphenazine-induced catalepsy.
The tests were performed on white rats of both sexes, each weighing 150 to 200 g. The animals were treated orally with varying amounts of Cyproheptadine hydrochloride or L-Dopa, respectively, and 30 minutes after the introduction of the active agents the animals were treated with a standard dosage of Perphenazine [2-chloro-10-(3-/4-(2-hydroxy-ethyl)-1-piperazinyl/-propyl)-phenothiazine]. The percentage of catalepsy inhibition was examined as a function of the time.
The interaction of the active agents was studied on white rats, according to the method described above. Cyproheptadine hydrochloride was administered in oral dosages of 2 or 4 mg./kg., respectively. 30 minutes after the introduction of Cyproheptadine hydrochloride the animals were treated with varying amounts of L-Dopa, and after an additional period of 30 minutes the animals were treated with a standard dosage of Perphenazine.

[5] = test system: hexobarbital narcosis; test: Examination of Sedative Effects, Hexobarbital Narcosis Test; settings: for Positive animals/treated animals: positive = sleep higher by at least 150% than control
Experimental: The side effects of the individual active agents as well as those of the compositions were examined as follows:
Examination of Sedative Effects on Mice, According to the Hexobarbital Narcosis Test
The compounds to be tested were suspended in water containing Tween 80, and 20 ml./kg. dosages of the obtained suspensions were administered orally to the test animals.

[6] = test system: Oxotremorine-induced tremor; test: Inhibition of Oxotremorine-induced Tremor; assay type: in vivo, mice; settings: for ED50 found: 30 min; for ED50 calculated: expected from isobole
Experimental: The tests were performed on mice of both sexes, each weighing 20 to 30 g. The groups consisted of 20 animals each. The test animals were treated orally with varying amounts of Cyproheptadine hydrochloride or L-Dopa, respectively.
30 minutes after the administration of L-Dopa, varying amounts of Cyproheptadine hydrochloride were introduced, and after further 30 minutes the animals were treated with a standard dosage of Oxotremorine.
In a further series of tests the animals were treated with 1 mg./kg. of Cyproheptadine hydrochloride. 30 minutes after the administration of Cyproheptadine hydrochloride, L-Dopa was introduced in varying amounts, and after a further period of 30 minutes the animals were treated with a standard dosage of Oxotremorine.
The expected ED50 values were determined by constructing an isobole, and the expected values were compared to the observed ones.

[7] = physiological saline p.o. + L-Dopa 500 mg./kg. i.p.
[8] = L-Dopa after 1 mg./kg. Cyproheptadine HCl
[9] = Cyproheptadine HCl 2.5 mg./kg. p.o. + physiological saline i.p.
[10] = Cyproheptadine hydrochloride 10 mg./kg. oral
[11] = Cyproheptadine hydrochloride 20 mg./kg. oral
[12] = Table 5, Cyproheptadine HCl 2 mg./kg. alone
[13] = Table 5, Cyproheptadine HCl 4 mg./kg. alone
[14] = Cyproheptadine hydrochloride after 200 mg./kg. L-Dopa

For `N[C@@H](Cc1ccc(O)c(O)c1)C(=O)O` [L-Dopa, L-3,4-dihydroxyphenylalanine], the LD50 at 72 h [1] was 4200 mg/kg, the “influence on toxicity of the other agent (in words)” value ([2]; pre-treatments with 1 and 2 g./kg. of L-dopa) was “hardly influence the toxicity of Cyproheptadine hydrochloride” and the “Average No. of light interruptions” value [3, 7] was 465. The Change % [3, 7] was “+105%”, the “Percentage inhibition after 0.5 hours” value ([4]; L-Dopa 100 mg./kg. oral) was 2% and the “Percentage inhibition after 1 hours” value ([4]; L-Dopa 100 mg./kg. oral) was 15%. The “Percentage inhibition after 2 hours” value ([4]; L-Dopa 100 mg./kg. oral) was 18%, the “Percentage inhibition after 3 hours” value ([4]; L-Dopa 100 mg./kg. oral) was 18% and the “Percentage inhibition after 4 hours” value ([4]; L-Dopa 100 mg./kg. oral) was 10%. The “Percentage inhibition after 0.5 hours” value ([4]; L-Dopa 200 mg./kg. oral) was 0%, the “Percentage inhibition after 1 hours” value ([4]; L-Dopa 200 mg./kg. oral) was 23% and the “Percentage inhibition after 2 hours” value ([4]; L-Dopa 200 mg./kg. oral) was 23%. The “Percentage inhibition after 3 hours” value ([4]; L-Dopa 200 mg./kg. oral) was 3%, the “Percentage inhibition after 4 hours” value ([4]; L-Dopa 200 mg./kg. oral) was 5% and the “Percentage inhibition after 0.5 hours” value ([4]; L-Dopa 400 mg./kg. oral) was 27%. The “Percentage inhibition after 1 hours” value ([4]; L-Dopa 400 mg./kg. oral) was 33%, the “Percentage inhibition after 2 hours” value ([4]; L-Dopa 400 mg./kg. oral) was 32% and the “Percentage inhibition after 3 hours” value ([4]; L-Dopa 400 mg./kg. oral) was 20%. The “Percentage inhibition after 4 hours” value ([4]; L-Dopa 400 mg./kg. oral) was 10%, the “% positive animals” value ([5]; 520 mg./kg. oral) was 0% and the “% positive animals” value ([5]; 800 mg./kg. oral) was 16.6%. The “% positive animals” value ([5]; 1200 mg./kg. oral) was 83%, the “Inhibition, %” value ([6]; L-Dopa 50 mg./kg. after 1 mg./kg. Cyproheptadine hydrochloride) was 15% and the “Inhibition, %” value ([6]; L-Dopa 100 mg./kg. after 1 mg./kg. Cyproheptadine hydrochloride) was 52.5%. The “Inhibition, %” value ([6]; L-Dopa 200 mg./kg. after 1 mg./kg. Cyproheptadine hydrochloride) was 67.5%, the “Inhibition, %” value ([6]; L-Dopa 400 mg./kg. after 1 mg./kg. Cyproheptadine hydrochloride) was 85% and the “Difference (percentage deviation of ED50 calculated vs. found)” value [6, 8] was “+117%”. The ED50 found [6, 8] was 120 mg/kg and the ED50 calculated [6, 8] was 260 mg/kg.

Work on `CN1CCC(=C2c3ccccc3C=Cc3ccccc32)CC1` [Cyproheptadine HCl] yielded an LD50 at 72 h [1] of 135 mg/kg, a mortality at 72 h ([1]; 40 mg/kg, 40 mg./kg., after 3 g./kg. L-Dopa) of 5% and a mortality at 72 h ([1]; 60 mg/kg, 60 mg./kg., after 2 g./kg. L-Dopa) of 0%. It also gave a mortality at 72 h ([1]; 60 mg/kg, 60 mg./kg., after 3 g./kg. L-Dopa) of 25%, a mortality at 72 h ([1]; 90 mg/kg, 90 mg./kg., 1 hour after 1 g/kg. L-Dopa) of 10% and a mortality at 72 h ([1]; 90 mg/kg, 90 mg./kg., after 2 g./kg. L-Dopa) of 10%. It also gave a mortality at 72 h ([1]; 90 mg/kg, 90 mg./kg., after 3 g./kg. L-Dopa) of 45%, a mortality at 72 h ([1]; 200 mg/kg, 200 mg./kg., 1 hour after 1 g/kg. L-Dopa) of 70% and a mortality at 72 h ([1]; 200 mg/kg, 200 mg./kg., after 2 g./kg. L-Dopa) of 85%. The mortality at 72 h ([1]; 200 mg/kg, 200 mg./kg., after 3 g./kg. L-Dopa) was 75%, the mortality at 72 h ([1]; 300 mg/kg, 300 mg./kg., 1 hour after 1 g/kg. L-Dopa) was 95% and the Perished animals/treated animals ([2]; 40 mg./kg., after 3 g./kg. L-Dopa) was 1/20. For the same compound, the Perished animals/treated animals ([2]; 60 mg./kg., after 2 g./kg. L-Dopa) was 0/20, the Perished animals/treated animals ([2]; 60 mg./kg., after 3 g./kg. L-Dopa) was 5/20 and the Perished animals/treated animals ([2]; 90 mg./kg., 1 hour after 1 g/kg. L-Dopa) was 2/20. The Perished animals/treated animals ([2]; 90 mg./kg., after 2 g./kg. L-Dopa) was 2/20, the Perished animals/treated animals ([2]; 90 mg./kg., after 3 g./kg. L-Dopa) was 9/20 and the Perished animals/treated animals ([2]; 200 mg./kg., 1 hour after 1 g/kg. L-Dopa) was 14/20. For the same compound, the Perished animals/treated animals ([2]; 200 mg./kg., after 2 g./kg. L-Dopa) was 17/20, the Perished animals/treated animals ([2]; 200 mg./kg., after 3 g./kg. L-Dopa) was 15/20 and the Perished animals/treated animals ([2]; 300 mg./kg., 1 hour after 1 g/kg. L-Dopa) was 19/20. The “Average No. of light interruptions” value [3, 9] was 145, the Change % [3, 9] was -36% and the “influence on locomotive stimulating effect of L-Dopa (in words)” value ([3]; in the tested dosages, conclusion from Table 9) was “does not influence the locomotive stimulating effect of L-Dopa”. For the same compound, the “Percentage inhibition after 0.5 hours” value [4, 10] was 89%, the “Percentage inhibition after 1 hours” value [4, 10] was 72% and the “Percentage inhibition after 2 hours” value [4, 10] was 61%. The “Percentage inhibition after 3 hours” value [4, 10] was 57%, the “Percentage inhibition after 0.5 hours” value [4, 11] was 76% and the “Percentage inhibition after 1 hours” value [4, 11] was 77%. For the same compound, the “Percentage inhibition after 2 hours” value [4, 11] was 73%, the “Percentage inhibition after 3 hours” value [4, 11] was 59% and the “Percentage inhibition after 0.5 hours” value [4, 12] was 37%. The “Percentage inhibition after 1 hours” value [4, 12] was 8%, the “Percentage inhibition after 2 hours” value [4, 12] was 14% and the “Percentage inhibition after 3 hours” value [4, 12] was 8%. The “Percentage inhibition after 0.5 hours” value [4, 13] was 20%, the “Percentage inhibition after 1 hours” value [4, 13] was 10% and the “Percentage inhibition after 2 hours” value [4, 13] was 14%. For the same compound, the “Percentage inhibition after 3 hours” value [4, 13] was 18%, the “% positive animals” value ([5]; 2.5 mg./kg. oral) was 33% and the Positive animals/treated animals ([5]; 2.5 mg./kg. oral) was 6/18. The “% positive animals” value ([5]; 5.0 mg./kg. oral) was 66%, the Positive animals/treated animals ([5]; 5.0 mg./kg. oral) was 4/6 and the “% positive animals” value ([5]; 10.0 mg./kg. oral) was 83%. For the same compound, the Positive animals/treated animals ([5]; 10.0 mg./kg. oral) was 5/6, the “Inhibition, %” value ([6]; 0.2 mg./kg. after 200 mg./kg. L-Dopa pre-treatment) was 0% and the “Inhibition, %” value ([6]; 0.4 mg./kg. after 200 mg./kg. L-Dopa pre-treatment) was 20%. The “Inhibition, %” value ([6]; 0.8 mg./kg. after 200 mg./kg. L-Dopa pre-treatment) was 50%, the “Inhibition, %” value ([6]; 1.6 mg./kg. after 200 mg./kg. L-Dopa pre-treatment) was 90% and the “Difference (percentage deviation of ED50 calculated vs. found)” value [6, 14] was “+107%”. It also gave an ED50 found [6, 14] of 0.7 mg/kg, an ED50 ([6]; Mus musculus, 0.5 h, Cyproheptadine hydrochloride alone, oral, 30 min before Oxotremorine) of 3 mg/kg and an ED50 calculated [6, 14] of 1.45 mg/kg.
